Read-outs that look alike come from different tables or passages of the source.
What was measured:
CYP450 2C9 = CYP450 2C9 (Homo sapiens, UniProt P11712); assay: CYP450 panel, 2C9; conditions: 10 μM; substrate Diclofenac
CYP450 2C8 = biological target: T1, CYP450 2C8 (Homo sapiens, UniProt P10632); assay: CYP450 panel, 2C8; conditions: 10 μM; substrate amodiaquine
T1 sequence (P10632 1-490): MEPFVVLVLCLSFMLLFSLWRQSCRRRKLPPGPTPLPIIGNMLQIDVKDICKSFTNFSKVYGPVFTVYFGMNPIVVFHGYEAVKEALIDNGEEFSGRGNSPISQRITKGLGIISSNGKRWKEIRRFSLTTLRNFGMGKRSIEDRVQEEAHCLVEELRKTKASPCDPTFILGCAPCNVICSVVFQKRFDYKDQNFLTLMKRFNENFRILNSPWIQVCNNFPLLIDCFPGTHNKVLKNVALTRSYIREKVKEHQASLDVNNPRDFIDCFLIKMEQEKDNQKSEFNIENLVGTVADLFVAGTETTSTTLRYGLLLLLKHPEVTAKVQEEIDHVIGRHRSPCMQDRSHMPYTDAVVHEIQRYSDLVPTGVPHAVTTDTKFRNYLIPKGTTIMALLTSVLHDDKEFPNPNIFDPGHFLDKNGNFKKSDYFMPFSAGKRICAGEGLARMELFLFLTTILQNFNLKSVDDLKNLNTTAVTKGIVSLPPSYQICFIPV

PAMPA (pH 7.4) = assay: PAMPA (pH 7.4)
Procedure: Each stock solution was diluted to 50 uM in pH 7.4 Prisma HT buffer (pION) and 200 ul was added to each well of the donor plate in triplicate. The polyvinylidene fluoride (PVDF, 0.45 μm) filter membrane on the acceptor plate was coated with 5 ul gastrointestinal tract lipid formulation (GIT-0, pION) and to each well of the acceptor plate, 200 μl of acceptor sink buffer (pION) was added. The acceptor filter plate was then carefully placed on top of the donor plate to form a sandwich. The sandwich was incubated at 25° C. for 4 h without stirring. UV-vis spectra of the solutions in the blank, reference, acceptor and donor plates were measured using a microplate reader (Tecan Infinite 200PRO M Nano Plus). Permeability values were calculated using the PAMPA explorer software v. 3.8.0.2 (pION).

CYP450 2C19 = CYP450 2C19 (Homo sapiens, UniProt P33261); assay: CYP450 panel, 2C19; conditions: 10 μM; substrate mephenytoin
CYP450 2C19, sequence (P33261 whole entry): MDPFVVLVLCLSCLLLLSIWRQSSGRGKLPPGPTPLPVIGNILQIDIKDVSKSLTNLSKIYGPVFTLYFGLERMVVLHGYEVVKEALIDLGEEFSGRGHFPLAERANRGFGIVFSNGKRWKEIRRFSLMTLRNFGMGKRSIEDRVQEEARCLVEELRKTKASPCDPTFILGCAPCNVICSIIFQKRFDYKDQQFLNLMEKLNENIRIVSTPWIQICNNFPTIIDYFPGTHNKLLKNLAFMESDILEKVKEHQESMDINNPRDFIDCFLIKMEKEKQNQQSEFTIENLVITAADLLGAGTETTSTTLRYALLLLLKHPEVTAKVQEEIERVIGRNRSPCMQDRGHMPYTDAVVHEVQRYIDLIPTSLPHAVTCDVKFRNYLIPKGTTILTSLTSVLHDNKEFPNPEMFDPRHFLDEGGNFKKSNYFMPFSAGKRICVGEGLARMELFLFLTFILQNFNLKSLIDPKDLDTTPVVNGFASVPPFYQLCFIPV

CYP450 2B6 = biological target: T2, CYP450 2B6 (Homo sapiens, UniProt P20813); assay: CYP450 panel, 2B6; conditions: 10 μM; substrate bupropion
T2 sequence (P20813 1-491): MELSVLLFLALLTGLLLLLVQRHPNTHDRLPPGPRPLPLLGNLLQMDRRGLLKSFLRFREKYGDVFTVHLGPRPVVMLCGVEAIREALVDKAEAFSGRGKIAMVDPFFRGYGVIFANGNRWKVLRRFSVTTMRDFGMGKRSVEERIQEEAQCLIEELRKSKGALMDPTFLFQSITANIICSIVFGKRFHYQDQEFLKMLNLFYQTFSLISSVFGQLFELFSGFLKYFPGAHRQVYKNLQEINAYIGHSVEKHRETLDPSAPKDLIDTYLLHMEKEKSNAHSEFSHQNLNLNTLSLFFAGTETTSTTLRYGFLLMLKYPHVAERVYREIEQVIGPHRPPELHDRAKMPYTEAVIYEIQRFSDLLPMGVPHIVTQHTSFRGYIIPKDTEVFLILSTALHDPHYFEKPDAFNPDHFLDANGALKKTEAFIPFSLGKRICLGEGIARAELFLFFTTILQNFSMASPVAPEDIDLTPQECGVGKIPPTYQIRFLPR

[1] = Absorption & efflux: Caco-2 permeability; conditions: human
[2] = Microsome stability, beagle dog; type: in vitro ADME; conditions: microsomes, 2 μM
[3] = Pharmacokinetics, single dose, 2-hour tissue levels in Colon26 tumor bearing mice; type: in vivo; conditions: female, athymic BALB/c nude or BALB/c, mouse, po, single dose 100 mg/kg p.o., 2-hour post dose
Procedure: Female mice (either athymic BALC/c nude, or BALB/c mice) were inoculated with a single subcutaneous injection of 0.2 ml of mouse Colon-26 cell suspension (1×10^5 cells per animal) in the inguinal region. Colon26 (C26) tumor bearing mice received a single dose (3 mice/treatment) of vehicle (10% DMSO/90% [20% SBE-β-CD in saline], pH 5) containing compounds at 100 mg/kg by gavage (p.o.) and 2-hour post dose humanely euthanized.
Blood was obtained through cardiac puncture into K+EDTA tubes, mixed by inversion and centrifuged to obtain the plasma. Tissues were excised, cleaned of surrounding tissues. All samples immediately snap frozen in liquid N2 prior to LC-MS/MS analysis (using Waters HSS T3 2.1×50 mm (1.8 um) LC column, and an API-6500 Electrospray MS unit).

[4] = Metabolite ID study, human hepatocytes; type: in vitro ADME; conditions: 10 uM compound 9, T=60 min
Procedure: (§1) Animal Studies: Compound 9 was tested using six species hepatocytes in a metabolite ID study (T=60 min).
(§2) Cryopreserved hepatocytes from a selected species were thawed and incubated in duplicate with 10 uM compound 9 in Krebs-Henseleit buffer. […] Viability of hepatocytes was >70% after thawing.
(§3) (Eppendorf 5804R). […] The disappearance of the parent compound was determined, and the formation of metabolites was evaluated. Metabolites present at >1% of total compound related material (based on peak area) were identified by interpretation of the LC-MS/MS data.
MS settings were optimized for the flow rate. Full scan spectra were acquired in combination with data dependent MS2.
(§4) The spectra obtained from all samples were screened for the presence of m/z values that are absent in the blank incubations (incubations with hepatocytes without compound and with vehicle control, and incubations of compound in buffer without hepatocytes). T=60 min incubations were used as an initial screening. All possible metabolites observed were semi-quantified by MS response (peak area). MS2 spectra were interpreted to determine possible location of the metabolism reaction. The presence of metabolites identified was compared across the selected species.

[5] = Metabolite ID study, six species hepatocytes; type: in vitro ADME; conditions: hepatocyte incubations, T=60 min
Procedure: as §1, §2, §3, §4
Primary metabolite shown for each species in bold font. Several masses found were also present in incubations with compound in buffer and were considered not to be metabolites.

[6] = Human liver microsome stability (t1/2, Clint); type: in vitro ADME; conditions: microsomes, pH 7.4, 0.5 mg/ml microsomal protein

CYP450 2C9, sequence (P11712 whole entry): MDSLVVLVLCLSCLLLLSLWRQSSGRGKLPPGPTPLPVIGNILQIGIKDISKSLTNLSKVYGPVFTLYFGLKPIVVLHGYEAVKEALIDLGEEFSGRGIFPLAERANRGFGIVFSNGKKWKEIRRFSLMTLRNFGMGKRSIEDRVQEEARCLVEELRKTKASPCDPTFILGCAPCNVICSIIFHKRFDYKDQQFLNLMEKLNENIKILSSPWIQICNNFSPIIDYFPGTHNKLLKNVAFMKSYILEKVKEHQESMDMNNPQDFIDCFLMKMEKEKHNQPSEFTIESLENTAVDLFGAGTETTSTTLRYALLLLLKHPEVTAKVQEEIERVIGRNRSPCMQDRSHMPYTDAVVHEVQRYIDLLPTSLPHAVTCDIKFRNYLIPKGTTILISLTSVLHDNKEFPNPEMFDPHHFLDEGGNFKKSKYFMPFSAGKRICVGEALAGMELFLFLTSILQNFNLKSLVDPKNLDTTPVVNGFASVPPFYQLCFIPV

Cn1cnc2c(F)c(Nc3ccc(Br)cc3Cl)c(C(=O)NOCCO)cc21 [Reference 1, Selumetinib, reference compound]
2C9* (CYP450 2C9): 14.1
2C8* (CYP450 2C8): 18.9
PAMPA (pH = 7.4; Papp 10^−6 cm/s) (PAMPA (pH 7.4)): 29 10^−6 cm/s
2C19* (CYP450 2C19): 13.9
2B6* (CYP450 2B6): 30.2
Papp A→B at 2 h, 10 μM [1]: > 1 ×10⁻⁶ cm/s
Beagle Dog (% Reamining @1 hour) [2]: 97.5%

CNS(=O)(=O)Nc1nccc(Cc2c(C)c3ccc(Oc4ncccn4)cc3oc2=O)c1F [Reference 2, reference compound]
PAMPA (pH = 7.4; Papp 10^−6 cm/s) (PAMPA (pH 7.4)): 29 10^−6 cm/s
concentration at 2 h ([3]; liver, read-out: Liver): 1990 ng/g
concentration at 2 h ([3]; muscle, read-out: Muscle): 550 ng/g
concentration at 2 h ([3]; plasma, read-out: Plasma): 5670 ng/mL
concentration at 2 h ([3]; tumor, read-out: Tumor): 819 ng/g
2C19* (CYP450 2C19): −0.9
Papp A→B at 2 h, 10 μM [1]: > 1 ×10⁻⁶ cm/s
Beagle Dog (% Reamining @1 hour) [2]: 111.6%

CNS(=O)(=O)Nc1cccc(Cc2c(CN(C)C)c3ccc(OC(=O)N(C)C)cc3oc2=O)c1F [Compound 9]
2C9* (CYP450 2C9): 6.8
2C8* (CYP450 2C8): 4.0
Papp at 4 h, 50 uM (PAMPA (pH 7.4); PAMPA): 37 ×10⁻⁶ cm/s
concentration at 2 h ([3]; liver, read-out: Liver): 1260 ng/g
concentration at 2 h ([3]; muscle, read-out: Muscle): 363 ng/g
concentration at 2 h ([3]; plasma, read-out: Plasma): 407 ng/mL
concentration at 2 h ([3]; tumor, read-out: Tumor): 1350 ng/g
% of total compound related material based on peak area, Human [4]: 99%
extent of metabolism in hepatocytes from different species [5]: not extensively metabolized
half-life at 1 uM [6]: 35 min
microsomal CLint at 1 uM [6]: 40 µL/min/mg
2C19* (CYP450 2C19): 8.2
2B6* (CYP450 2B6): 14.8
Papp B→A at 2 h, 10 μM [1]: 21 ×10⁻⁶ cm/s
efflux ratio at 2 h, 10 μM [1]: 1.62
Papp A→B at 2 h, 10 μM ([1]; Caco-2, A-B Permeability Ranking, 10 μM, 2 hrs): > 1 ×10⁻⁶ cm/s
Papp A→B at 2 h, 10 μM ([1]; Caco-2, Mean Papp A-B (10^−6 cm/s), 10 μM, 2 hrs): 13 ×10⁻⁶ cm/s
Beagle Dog (% Reamining @1 hour) [2]: 76.5%

Reference: patent US20250270180A1, “MEK INHIBITORS AND THERAPEUTIC USES THEREOF” (Immuneering Corporation, priority 2020, published 2025)
